These are literature values, as cited in patent US9770413B2, “Amphiphilic dendron-coils, micelles thereof and uses” (THE BOARD OF TRUSTEES OF THE UNIVERSITY OF ILLINOIS, priority 2011, dated 2017).

This data set deals with folate receptors (FR).

The Kd is the free concentration of one partner at which half of the binding sites on the other are occupied at equilibrium, for simple one-to-one binding. Regarding `Nc1nc2ncc(CNc3ccc(C(=O)N[C@@H](CCC(=O)O)C(=O)O)cc3)nc2c(=O)[nH]1` [FA, folic acid], the Kd was approximately 100 pM.
